From PubChem BioAssay AID179 (DTP/NCI, 2004)
Where “and” joins values, the source holds several entries; their conditions need not be identical. Identical values can stand only once. Calls of active or inactive are those of the source.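 The calls were made as follows: active = compounds giving half or more protection of infected cells from virus-caused growth loss, again on retest; inactive = the rest.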

System: CEM cells HIV-1 protection, formazan growth assay
Test: NCI AIDS Antiviral Assay
Conditions: for IC50: measured here: growth of uninfected CEM cells
Summary of the method: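 Screen of anti-HIV-1 activity in human CEM cells using a formazan-based growth measurement at five drug concentrations. Hits with 50% or greater protection were repeated, and confirmation required reproducible complete protection.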

Structure (SMILES) | EC50 [µM] | IC50 | outcome
O=C(C[n+]1ccccc1)NNC(=O)/C(=C/c1ccc2c(c1)OCO2)NC(=O)c1ccccc1 | > 7.76 | > 7.76 µM | –
N=C(N)SCN1C(=O)c2ccccc2C1=O | > 200 | > 200 µM | –
C(/C=N/NC1=NCCCCN1)=N\NC1=NCCCCN1 | > 200 | > 200 µM | –
COc1ccc(NC(C)=O)c(Cl)c1 | > 1260 | > 1260 µM | –
CC1CC(C)C2=NOS3=C2C1=NO3 (centres undefined) | > 200 | > 100 µM | –
COc1ccc(-c2cc(-c3ccccc3)c(C#N)c(=O)[nH]2)cc1 | > 61.7 | > 61.7 µM | –
Cc1ccccc1Nc1ccc([N+](=O)[O-])c2nonc12 | > 83.2 | 33.1 µM | –
CCOC(=O)C(NC(=O)c1ccccc1)[CH](c1ccccc1)[Sn]([c]1ccccc1)([c]1ccccc1)[c]1ccccc1 (centres undefined) | > 200 | 20.4 µM | –
C=CC(C)(C)n1cc(C2=C(O)C(=O)C(c3c(CC=C(C)C)[nH]c4ccccc34)=C(O)C2=O)c2ccccc21 | > 200 | 2.57 µM | –
c1ccc(-c2nc3ccccc3nc2-c2ccccn2)nc1 | > 200 | > 200 µM | –
CSc1nnc(COc2ccc(Cl)cc2)o1 | > 263 | > 263 µM | –
COc1ccc(NC2Oc3cc4c(cc3C(c3cc(OC)c(O)c(OC)c3)C2C)OCO4)cc1 (centres undefined) | > 200 | 3.63 µM | –
CCCCCCCN(O)CC1OC(n2ccc(=O)[nH]c2=O)C(O)C1O (centres undefined) | > 200 | 141 µM | –
CC(=O)OCC12CCC3C4(C)CCCC(C)(C)C4CCC3(C)C1CC(C1=CC(=O)OC1O)O2 (centres undefined) | > 200 | 1.05 µM | –
O=C(c1cccc(C(=O)N(c2ccccc2)c2ccccc2)n1)N(c1ccccc1)c1ccccc1 | > 11.2 | > 11.2 µM | –
CC(C)(C)C1CCC2(N3CCOCC3)C(C#N)CC2C1 (centres undefined) | > 794 | 89.1 µM and > 794 µM | –
OC/C=C/[C@H](OCc1ccccc1)[C@H](/C=C/CO)OCc1ccccc1 | > 200 | 57.5 µM | –
COc1c(Cl)cc(C(=Cc2c(F)c(F)c(F)c(F)c2F)c2cc(Cl)c(OC)c(C(=O)O)c2)cc1C(=O)O | 324 | 490 µM | –
CCOC(=O)/C=C1/C(CCCOCc2ccccc2)C2CCCC23CC2(CCN13)OCCO2 (centres undefined) | – | – | inactive
CC1NC(=O)c2cc(=O)[nH]c(O)c21 (centres undefined) | > 513 | 398 µM | –
CN(C)CC1CCCC/C1=N/OC(=O)c1ccc(Cl)c(Cl)c1 (centres undefined) | – | – | inactive
Oc1cccc2nc3cc(CN4CCOCC4)c(CN4CCOCC4)cc3nc12 | > 18.2 | > 18.2 µM | –

Structure (SMILES) | EC50 [µM] | IC50 | outcome
COc1cc(OC)c2ccc(=O)oc2c1 | > 91.2 | > 91.2 µM | –
CC1=NN(C(=O)c2ccc([N+](=O)[O-])cc2)C(=O)C1N=Nc1ccccc1C(=O)O (centres undefined) | – | – | inactive
CCN(CC)C(=O)N1CN(c2ccccc2)C2(CCN(CCCC3(c4ccc(F)cc4)OCCO3)CC2)C1=O | > 200 | 27.5 µM | –
O=C(Cc1ccccc1)NC(C(=O)c1ccccc1)c1ccccc1 (centres undefined) | > 79.4 | > 79.4 µM | –
CCN1C(=O)C(C)S/C1=N\NC(=O)CSc1nc2ccccc2c(=O)n1CC (centres undefined) | > 200 | 145 µM | –
O=C(c1cccs1)N(C(=S)N1CCN(c2ccccc2)CC1)C1CCCCC1 | > 12.6 | > 12.6 µM | –
COC(=O)C12OC(C)(C(CC(=O)OC(C)(C)C)C1=O)C1C(=O)N(c3ccccc3)C(=O)C12 (centres undefined) | > 200 | > 200 µM | –
CCOC(=O)C(=CNC(=S)c1ccncc1)C(=O)OCC | > 200 | > 200 µM | –
CC(CO)C1=C(c2c[nH]c3ccccc23)C2C(C)C[C@H](O)C3(C)C(C)CCC(O)C23CC1 (some centres undefined) | – | – | inactive
Cc1cccc(C)c1NC(=O)CCC(=O)NC(N)=S | > 339 | > 339 µM | –
CCOC(=O)Cn1c(=O)c2nc(SC)sc2n(-c2ccccc2)c1=O | > 200 | > 200 µM | –
O=C(/C=C\c1cccc2ccccc12)c1ccc(Cl)cc1Cl | > 1.66 | > 1.66 µM | –
CCOC(=O)/N=c1/nc(N(C)C)ss1 | – | – | inactive
Cn1cc(N)cc1C(=O)Nc1cc(C(=O)Nc2ccc3cc(S(=O)(=O)O)cc(S(=O)(=O)O)c3c2)n(C)n1 | 18.2 | > 100 µM | –
CCOC(=O)Cn1c(=O)c2nc(SC)sc2n(-c2ccc(C)cc2)c1=S | > 200 | > 200 µM | –
CCn1c(SCc2nnc(Nc3ccccc3)s2)nc2ccccc2c1=O | > 200 | 69.2 µM | –
COc1cccc(/C=N/N=C(/N)NO)c1 | – | – | inactive
COc1ccc(N(c2ccc(C#N)cc2)c2ccc(C#N)cc2)cc1 | > 45.7 | 33.1 µM | –
COC(=O)C1C(=O)N(C)c2cc(C)c(C)cc2C1(C)C (centres undefined) | > 200 | > 200 µM | –
S=CN1CCCCC1 | > 200 | > 200 µM | –
COc1ccc2c3c1OC1CC(O)C=CC31CCN(C)C2 (centres undefined) | > 200 | > 200 µM | –
Cc1cc(Br)ccc1Nc1nc(N)nc(N)c1N=O | > 200 | 51.3 µM | –

Structure (SMILES) | EC50 [µM] | IC50 | outcome
COc1cc(C=O)c(-c2cc3c(cc2C=O)OCO3)c(OC)c1OC | > 145 | 51.3 µM | –
CN(C)c1cccc2c(S(=O)O)cccc12 | > 200 | > 200 µM | –
CCC(=O)O[C@H](C)CC1SCCCS1 | > 214 | > 214 µM | –
Nc1ncnc2c1ncn2COC/C=C/I | > 204 | 155 µM | –
Cc1cccc(NC(=O)Nc2ccc(F)cc2)n1 | 129 | > 200 µM | –
N#Cc1cc2c(n(NS(=O)(=O)c3ccccc3)c1=O)CCC2 | > 200 | > 200 µM | –
COc1c(C2=NC(C(C)C)CO2)ccc2ccccc12 (centres undefined) | > 186 | 20.9 µM | –
COc1cc(Cc2nnc(Nc3ccccc3)[nH]c2=O)cc(OC)c1OC | > 257 | > 257 µM | –
Cc1csc2c(=O)n(COCc3ccccc3)c(=O)[nH]c12 | > 200 | > 200 µM | –
O=C(O)c1oc2cccc3c2c1CCC3 | – | – | inactive
O=C1CC2c3ccccc3CCC2c2ccccc21 (centres undefined) | > 200 | 7.59 µM | –
N#CNC1=NC(C(=O)O)CC(=O)N1CCc1c[nH]c2ccccc12 (centres undefined) | > 200 | 50.1 µM | –
O=C1NC(=O)c2ccc3c4c(ccc1c24)C(=O)NC3=O | > 200 | > 200 µM | –
CCOC(=O)/C=C/c1ccc(OC)cc1 | > 34.7 | > 34.7 µM | –
CC(C)C(O)C(=O)C(Sc1ccccc1)C(C)C (centres undefined) | > 355 | 240 µM | –
CCC1(O)CC(CCN(Cc2ccccc2)C(=O)OCc2ccccc2)C(OCc2ccccc2)C1O (centres undefined) | > 200 | 9.12 µM | –
CCCCOP(C)(=O)C(NC(=O)OCC)(C(F)(F)F)C(F)(F)F (centres undefined) | > 200 | > 200 µM | –
CCCCCCN(CCCCCC)/N=C/c1c2c(O)c3c(O)c(C)c4c(c3c1O)C(=O)C(C)(O/C=C/C(OC)C(C)C(OC(C)=O)C(C)C(O)C(C)C(O)C(C)/C=C/C=C(C)C(=O)N2)O4 (centres undefined) | – | – | inactive
NCC(=O)NC(CCCC(NC(=O)CN)P(=O)(O)O)P(=O)(O)O (centres undefined) | – | – | inactive
COc1cc(C2(C#N)CCN(C)CC2)cc(OC)c1OC | > 871 | 437 µM | –
CN(C(=O)Cc1ccccc1)n1cn[n+](CC(=O)OC(C)(C)C)c1 | > 200 | > 200 µM | –
C=C1[C@H]2CCC3(CC[C@H]4C5(CCC[C@@]4(C)C(=O)N(CCO)C5)[C@@H]3C2)[C@@H]1O | – | – | inactive

Structure (SMILES) | EC50 [µM] | IC50 | outcome
CCOC(=O)/C(C#N)=C/c1cccc(F)c1 | > 162 | > 162 µM | –
CC(C)OC1CC(C)(C)c2c(-c3ccccc3)nn(-c3ccccc3)c2O1 (centres undefined) | > 61.7 | 38 µM | –
CC1C2CC(CC2N)C1(C)C (centres undefined) | > 162 | > 162 µM | –
CC(=O)Nc1ccc(S(=O)(=O)NCCSSCCNS(=O)(=O)c2ccc(NC(C)=O)cc2)cc1 | > 200 | > 200 µM | –
CCCCCCCCCCCCCC(=O)OCC1OC(n2cc(F)c(=O)[nH]c2=O)C(NC(=O)OCc2ccccc2)C(OC(=O)CCCCCCCCCCCCC)C1O (centres undefined) | > 11.7 | > 11.7 µM | –
COc1cc(C#N)c(NC(=S)N2CCN(C(=O)c3ccco3)CC2)cc1OC | > 200 | 120 µM | –
O=C1c2cccc3cc([N+](=O)[O-])cc(c23)C(=O)N1CCN1CCCC1 | > 200 | 0.0832 µM | –
CCSc1nn(-c2c3ccccc3nc3ccccc23)c(=S)s1 | > 200 | 102 µM | –
CC1COC(C)(C)P(c2ccccc2)C1 (centres undefined) | > 1120 | > 1120 µM | –
Nc1cnc2c(c1)c(=O)nc1n2CCS1 | > 200 | 117 µM | –
Cc1ccc(SCC(CSCCO)OCn2cnc3c2NC(N)=NC32OCCO2)cc1 (centres undefined) | > 200 | > 200 µM | –
Cc1ccc(C)c(COCCOCn2cc(N3CCOCC3)c(=O)[nH]c2=O)c1 | > 200 | > 200 µM | –
CN1C(=O)CC(=O)N(c2ccccc2)c2cc(Cl)ccc21 | – | – | inactive
O=C(O)CNCCCCCCNCC(=O)O | > 631 | 617 µM | –
CC(C)(C)OC(=O)[C@H]1CCC(=S)N1Cc1ccccc1 | > 200 | > 200 µM | –
C1=C(N2CCOCC2)/C(=C2\SC(=Nc3ccccc3)C(=Nc3ccccc3)N2c2ccccc2)CC1 | > 200 | 138 µM | –
CC(C)CCCC(C)[C@H]1CC[C@@H]2[C@H]3CC[C@H]4C[C@@H](CCC=C(c5cc(Cl)c(OCc6cccc([N+](=O)[O-])c6)c(C(=O)O)c5)c5cc(Cl)c(OCc6cccc([N+](=O)[O-])c6)c(C(=O)O)c5)CC[C@]4(C)[C@@H]3CC[C@]12C (some centres undefined) | > 200 | > 200 µM | –
COc1ccccc1/C=C(/C(=O)c1ccccc1)c1ccccc1 | > 8.71 | > 8.71 µM | –
O=c1c2c3c(sc2nc2n1N=C(c1ccc([N+](=O)[O-])cc1)CS2)CCCC3 | > 200 | > 200 µM | –
C/C(=C\CCC1=CC(=O)OC1)CC[C@@H]1[C@H]2C(=O)CC(C)[C@@]3(C)CC[C@]1(C)[C@@]23C (some centres undefined) | > 200 | 34.7 µM | –
NC(=O)C1N=NSC1NC(=O)c1ccc([N+](=O)[O-])cc1 (centres undefined) | > 200 | 26.9 µM | –
COC(=O)c1c(C)cc2c(c1O)C1(O)C(=O)c3cc4c(c(O)c3C(=O)C1(OC)C(O)C2)C(=O)C=C(NC1OC(C)C(OC)C(O)C1OC)C4=O (centres undefined) | – | – | inactive
